Read-outs that look alike come from different tables or passages of the source.
Test: PK of compound of Formula (Ia) after single subcutaneous dose of solution formulations in Wistar Han rats
Assay type: in vivo
Details: male, Wistar Han, rat, plasma, sc, 50 mg/kg; for concentration at 2688 h / concentration at 3024 h / concentration at 3360 h / concentration at 3696 h / concentration at 4032 h / concentration at 4704 h: Wistar Han rats, SC 50 mg/kg, 500 mg/mL solution X (5.00% ethanol, 1.91% poloxamer 188); for AUC(0-t): male Wistar Han rats, single SC 50 mg/kg, mean ± SD
Description: Formulations containing the compound of Formula (Ia), or a pharmaceutically acceptable salt thereof, were prepared as solutions and optionally administered subcutaneously or intramuscularly to rats, rabbits, and/or dogs.
(§1) A solution of about 400 mg/mL of the compound of Formula (Ia) having 19.14 w/w % water, 40.66 w/w % PEG 300, 35.20 w/w % of a sodium salt of a compound of Formula (Ia), and 5.00% ethanol was prepared. The solution was administered subcutaneously to male Wistar Han rats at a dose level of about 50 mg/kg and dose volume of 0.125 mL/kg and the pharmacokinetic (PK) profile was determined.
as §1, with “500” for “400”, “16.64” for “19.14”, “35.36” for “40.66”, “43.00” for “35.20”, “0.1” for “0.125”
(§2) A solution of about 400 mg/mL of the compound of Formula (Ia) having 17.00 w/w % water, 36.40 w/w % PEG 300, 35.20 w/w % of a sodium salt of a compound of Formula (Ia), 5.00 w/w % ethanol, and 6.40 w/w % poloxamer 188 was prepared. The solution was administered subcutaneously to male beagle dogs at a dose level of about 12 mg/kg and male Wistar Han rats at a dose level of about 50 mg/kg. The pharmacokinetic profiles were determined, and the results for dogs are summarized in Table and Table, while the results for rats are summarized in Table and Table below.
as §2, with “500” for “400”, “14.06” for “17.00”, “30.12” for “36.40”
A solution of about 300 mg/mL of the compound of Formula (Ia) having 23.33 w/w % water, 48.99 w/w % PEG 300, 26.47 w/w % of a sodium salt of a compound of Formula (Ia), and 1.21 w/w % poloxamer 188 was prepared. The solution was administered subcutaneously to male beagle dogs at a dose level of about 6 mg/kg and male Wistar Han rats at a dose level of about 50 mg/kg. The pharmacokinetic profiles were determined, and the results for dogs are summarized in Table and Table, while the results for rats are summarized in Table and Table below.
as §2, with “18.80” for “17.00”, “40.25” for “36.40”, “34.38” for “35.20”, “1.57” for “6.40”
as §2, with “500” for “400”, “16.29” for “17.00”, “34.88” for “36.40”, “41.92” for “35.20”, “1.91” for “6.40”
A solution of about 400 mg/mL of the compound of Formula (Ia) having 20.90 w/w % water, 44.72 w/w % PEG 300, and 34.38 w/w % of a sodium salt of a compound of Formula (Ia) was prepared. […]

- concentration at 2688 h (Mean n = 3): 168 nM
- concentration at 2688 h (animals #1-#3): 141 nM
- concentration at 3024 h (Mean n = 3): 161 nM
- concentration at 3024 h (animals #1-#3): 127 nM
- concentration at 3360 h (Mean n = 3): 157 nM
- concentration at 3360 h (animals #1-#3): 122 nM
- concentration at 3696 h (Mean n = 3): 134 nM
- concentration at 3696 h (animals #1-#3): 121 nM
- concentration at 4032 h (Mean n = 3): 135 nM
- concentration at 4032 h (animals #1-#3): 97.5 nM
- concentration at 4704 h (Mean n = 3): 88.8 nM
- concentration at 4704 h (animals #1-#3): 79.4 nM
- AUC(0-t) (400 mg/mL solution AA (6.25% poloxamer 188), n = 4, read-out: AUC0-24 h): 3.44 ± 0.69 µM·h
- AUC(0-t) (400 mg/mL solution AA (6.25% poloxamer 188), n = 4, read-out: AUC0-168 h): 32.4 ± 7.6 µM·h
- AUC(0-t) (400 mg/mL solution AA (6.25% poloxamer 188), n = 4, read-out: AUC0-336 h): 55.2 ± 16.3 µM·h
- AUC(0-t) (400 mg/mL solution AA (6.25% poloxamer 188), n = 4, read-out: AUC0-672 h): 98 ± 30.4 µM·h
- AUC(0-t) (400 mg/mL solution AA (6.25% poloxamer 188), n = 4, read-out: AUC0-1008 h): 136 ± 36 µM·h
- AUC(0-t) (400 mg/mL solution AA (6.25% poloxamer 188), n = 4, read-out: AUC0-1344 h): 167 ± 41 µM·h
- AUC(0-t) (400 mg/mL solution AA (6.25% poloxamer 188), n = 4, read-out: AUC0-2352 h): 190 ± 45 µM·h
- AUC(0-t) (400 mg/mL solution AA (6.25% poloxamer 188), n = 4, read-out: AUC0-3024 h): 240 ± 59 µM·h
- AUC(0-t) (400 mg/mL solution AA (6.25% poloxamer 188), n = 4, read-out: AUC0-3696 h): 289 ± 76 µM·h
- AUC(0-t) (400 mg/mL solution W (5.00% ethanol, 1.57% poloxamer 188), n = 3, read-out: AUC0-24 h): 2 ± 0.58 µM·h
- AUC(0-t) (400 mg/mL solution W (5.00% ethanol, 1.57% poloxamer 188), n = 3, read-out: AUC0-168 h): 21.6 ± 4.5 µM·h
- AUC(0-t) (400 mg/mL solution W (5.00% ethanol, 1.57% poloxamer 188), n = 3, read-out: AUC0-336 h): 45.9 ± 11.9 µM·h
- AUC(0-t) (400 mg/mL solution W (5.00% ethanol, 1.57% poloxamer 188), n = 3, read-out: AUC0-672 h): 124 ± 32 µM·h
- AUC(0-t) (400 mg/mL solution W (5.00% ethanol, 1.57% poloxamer 188), n = 3, read-out: AUC0-1008 h): 215 ± 45 µM·h
- AUC(0-t) (400 mg/mL solution W (5.00% ethanol, 1.57% poloxamer 188), n = 3, read-out: AUC0-1344 h): 306 ± 65 µM·h
- AUC(0-t) (400 mg/mL solution W (5.00% ethanol, 1.57% poloxamer 188), n = 3, read-out: AUC0-1680 h): 401 ± 86 µM·h
- AUC(0-t) (400 mg/mL solution W (5.00% ethanol, 1.57% poloxamer 188), n = 3, read-out: AUC0-2352 h): 540 ± 114 µM·h
- AUC(0-t) (400 mg/mL solution W (5.00% ethanol, 1.57% poloxamer 188), n = 3, read-out: AUC0-3024 h): 647 ± 126 µM·h
- AUC(0-t) (400 mg/mL solution W (5.00% ethanol, 1.57% poloxamer 188), n = 3, read-out: AUC0-3696 h): 730 ± 131 µM·h
- AUC(0-t) (400 mg/mL solution W (5.00% ethanol, 1.57% poloxamer 188), n = 3, read-out: AUC0-4704 h): 765 ± 131 µM·h
- AUC(0-t) (400 mg/mL solution Y (water, PEG 300), n = 4, read-out: AUC0-24 h): 1.66 ± 0.32 µM·h
- AUC(0-t) (400 mg/mL solution Y (water, PEG 300), n = 4, read-out: AUC0-168 h): 15.7 ± 4.7 µM·h
SMILES: CC(C)(C#Cc1ccc(-c2ccc(Cl)c3c(NS(C)(=O)=O)nn(CC(F)(F)F)c23)c([C@H](Cc2cc(F)cc(F)c2)NC(=O)Cn2nc(C(F)(F)F)c3c2C(F)(F)[C@@H]2C[C@H]32)n1)S(C)(=O)=O [compound of Formula (Ia)]

Reference: patent US11807625B2, “Capsid inhibitors for the prevention of HIV” (Gilead Sciences, Inc., priority 2019, dated 2023)
